Where two headings read alike, the source gives them in different places.
What was measured:
CDK2/CycE = target: T1, CDK2/CycE (Homo sapiens, UniProt P24941); experiment: CDK2/CycE high ATP kinase assay (Method 2b); assay type: biochemical; settings: 2 mM ATP
T1 construct: GST; purchased ProQinase GmbH (Freiburg, Germany); host or cells: insect cells (Sf9)
Experimental: 2b. CDK2/CycE High ATP Kinase Assay:
CDK2/CycE-inhibitory activity of compounds of the present invention at 2 mM adenosine-tri-phosphate (ATP) was quantified employing the CDK2/CycE TR-FRET (TR-FRET=Time Resolved Fluorescence Energy Transfer) assay as described in the following paragraphs.
Recombinant fusion proteins of GST and human CDK2 and of GST and human CycE, expressed in insect cells (Sf9) and purified by Glutathion-Sepharose affinity chromatography, were purchase from ProQinase GmbH (Freiburg, Germany) As substrate for the kinase reaction biotinylated peptide biotin-Ttds-YISPLKSPYKISEG (C-terminus in amid form) was used which can be purchased e.g. form the company JERINI peptide technologies (Berlin, Germany).
For the assay 50 nl of a 100 fold concentrated solution of the test compound in DMSO was pipetted into a black low volume 384 well microtiter plate (Greiner Bio-One, Frickenhausen, Germany), 2 μl of a solution of CDK2/CycE in aqueous assay buffer [50 mM Tris/HCl pH 8.0, 10 mM MgCl2, 1.0 mM dithiothreitol, 0.1 mM sodium ortho-vanadate, 0.01% (v/v) Nonidet-P40 (Sigma)] were added and the mixture was incubated for 15 min at 22° C. to allow pre-binding of the test compounds to the enzyme before the start of the kinase reaction. Then the kinase reaction was started by the addition of 3 μl of a solution ATP (3.33 mM=>final conc. in the 5 μl assay volume is 2 mM) and substrate (1.25 μM=>final conc. in the 5 μl assay volume is 0.75 μM) in assay buffer and the resulting mixture was incubated for a reaction time of 25 min at 22° C. The concentration of CDK2/CycE was adjusted depending of the activity of the enzyme lot and was chosen appropriate to have the assay in the linear range, typical concentrations were in the range of 15 ng/ml. The reaction was stopped by the addition of 5 μl of a solution of TR-FRET detection reagents (0.2 μM streptavidine-XL665 [Cisbio Bioassays, Codolet, France] and 1 nM anti-RB(pSer807/pSer811)-antibody from BD Pharmingen [#558389] and 1.2 nM LANCE EU-W1024 labeled anti-mouse IgG antibody [Perkin-Elmer, product no. AD0077, as an alternative a Terbium-cryptate-labeled anti-mouse IgG antibody from Cisbio Bioassays can be used]) in an aqueous EDTA-solution (100 mM EDTA, 0.2% (w/v) bovine serum albumin in 100 mM HEPES/NaOH pH 7.0).
The resulting mixture was incubated 1 h at 22° C. to allow the formation of complex between the phosphorylated biotinylated peptide and the detection reagents. Subsequently the amount of phosphorylated substrate was evaluated by measurement of the resonance energy transfer from the Eu-chelate to the streptavidine-XL. Therefore, the fluorescence emissions at 620 nm and 665 nm after excitation at 350 nm were measured in a TR-FRET reader, e.g. a Rubystar (BMG Labtechnologies, Offenburg, Germany) or a Viewlux (Perkin-Elmer). The ratio of the emissions at 665 nm and at […] was taken as the measure for the amount of phosphorylated substrate. The data were normalised (enzyme reaction without inhibitor=0% inhibition, all other assay components but no enzyme=100% inhibition).

HeLa cells = experiment: Proliferation assay, HeLa (Method 3); assay type: cell-based, human; settings: 4 days, crystal violet, read-out: Inhibition of HeLa cell proliferation IC50
Experimental: (§1) Cultivated tumour cells (HeLa, human cervical tumour cells, ATCC CCL-2; NCI-H460, human non-small cell lung carcinoma cells, ATCC HTB-177; A2780, human ovarian carcinoma cells, ECACC #93112519; DU 145, hormone-independent human prostate carcinoma cells, ATCC HTB-81; HeLa-MaTu-ADR, multidrug-resistant human cervical carcinoma cells, EPO-GmbH Berlin; Caco-2, human colorectal carcinoma cells, ATCC HTB-37; B16F10, mouse melanoma cells, ATCC CRL-6475) were plated at a density of 5,000 cells/well (DU145, HeLa-MaTu-ADR), 3,000 cells/well (NCI-H460, HeLa), 2,500 cells/well (A2780), 1,500 cells/well (Caco-2), or 1,000 cells/well (B16F10) in a 96-well multititer plate in 200 μL of their respective growth medium supplemented 10% fetal calf serum. After 24 hours, the cells of one plate (zero-point plate) were stained with crystal violet (see below), while the medium of the other plates was replaced by fresh culture medium (200 μl), to which the test substances were added in various concentrations (0 μM, as well as in the range of 0.001-10 μM; the final concentration of the solvent dimethyl sulfoxide was 0.5%). The cells were incubated for 4 days in the presence of test substances. Cell proliferation was determined by staining the cells with crystal violet: the cells were fixed by adding 20 μl/measuring point of an 11% glutaric aldehyde solution for 15 minutes at room temperature. After three washing cycles of the fixed cells with water, the plates were dried at room temperature. The cells were stained by adding 100 μl/measuring point of a 0.1% crystal violet solution (pH 3.0). After three washing cycles of the stained cells with water, the plates were dried at room temperature. The dye was dissolved by adding 100 μl/measuring point of a 10% acetic acid solution. The extinction was determined by photometry at a wavelength of 595 nm. The change of cell number, in percent, was calculated by normalization of the measured values to the extinction values of the zero-point plate (=0%) and the extinction of the untreated (0 μm) cells (=100%). The IC50 values (inhibitory concentration at 50% of maximal effect) were determined by means of a 4 parameter fit.

A2780 cells = experiment: Proliferation assay, A2780 (Method 3); assay type: cell-based, human; settings: 4 days, crystal violet, read-out: Inhibition of A2780 cell proliferation IC50
Experimental: as §1

MOLM-13 cells = experiment: Proliferation assay, MOLM-13 (Method 3); assay type: cell-based, human; settings: 72-hour exposure, Cell Titre-Glo, read-out: Inhibition of MOLM 13 cell proliferation IC50
Experimental: Non-adherent MOLM-13 human acute myeloid leukemia cells (DSMZ ACC 554) were seeded at a density of 5,000 cells/well in a 96-well multititer plate in 100 μL of growth medium supplemented 10% fetal calf serum. After 24 hours, cell viability of one plate (zero-point plate) was determined with the Cell Titre-Glo Luminescent Cell Viability Assay (Promega), while 50 μl of test compound containing medium was added to the wells of the other plates (final concentrations in the range of 0.001-10 μM and DMSO controls; the final concentration of the solvent dimethyl sulfoxide was 0.5%). Cell viability was assessed after 72-hour exposure with the Cell Titre-Glo Luminescent Cell Viability Assay (Promega). IC50 values (inhibitory concentration at 50% of maximal effect) were determined by means of a 4 parameter fit on measurement data which were normalized to vehicle (DMSO) treated cells (=100%) and measurement readings taken immediately before compound exposure (=0%).

## COc1cc(F)ccc1-c1cc(Nc2cc(CS(C)(=N)=O)ccn2)ncn1 (racemic) [Example 1, (rac)-6-(4-Fluoro-2-methoxyphenyl)-N-{4-[(S-methylsulfonimidoyl)methyl]pyridin-2-yl}pyrimidin-4-amine]
CDK2/CycE
  IC50: 1510 nM
HeLa cells; Homo sapiens, HeLa, 96 h
  IC50: 477 nM
A2780 cells; Homo sapiens, A2780, 96 h
  IC50: 60 nM

## COc1cc(F)ccc1-c1cc(Nc2cc(CS(C)(=N)=O)cc(Cl)n2)ncn1 (racemic) [Example 4, (rac)-N-{6-Chloro-4-[(S-methylsulfonimidoyl)methyl]pyridin-2-yl}-6-(4-fluoro-2-methoxyphenyl)pyrimidin-4-amine]
MOLM-13 cells; Homo sapiens, MOLM-13, 72 h
  IC50: 47 nM
CDK2/CycE
  IC50: 1130 nM
HeLa cells; Homo sapiens, HeLa, 96 h
  IC50: 109 nM
A2780 cells; Homo sapiens, A2780, 96 h
  IC50: 62 nM

## COc1cc(F)ccc1-c1cc(Nc2cc(CS(C)(=N)=O)cc(C)n2)ncn1 (racemic) [Example 7, (rac)-6-(4-Fluoro-2-methoxyphenyl)-N-{6-methyl-4-[(S-methylsulfonimidoyl)methyl]pyridin-2-yl}pyrimidin-4-amine]
MOLM-13 cells; Homo sapiens, MOLM-13, 72 h
  IC50: 53 nM
CDK2/CycE
  IC50: 3630 nM
HeLa cells; Homo sapiens, HeLa, 96 h
  IC50: 121 nM
A2780 cells; Homo sapiens, A2780, 96 h
  IC50: 35 nM

## COc1cc(F)ccc1-c1cc(Nc2cc(CS(C)(=N)=O)cc(C(F)(F)F)n2)ncn1 (racemic) [Example 10, (rac)-6-(4-Fluoro-2-methoxyphenyl)-N-{4-[(S-methylsulfonimidoyl)methyl]-6-(trifluoromethyl)pyridin-2-yl}pyrimidin-4-amine]
MOLM-13 cells; Homo sapiens, MOLM-13, 72 h
  IC50: 32 nM
CDK2/CycE
  IC50: 797 nM
HeLa cells; Homo sapiens, HeLa, 96 h
  IC50: 60 nM
A2780 cells; Homo sapiens, A2780, 96 h
  IC50: 32 nM

## COc1cc(F)ccc1-c1cc(Nc2cc(CS(C)(=N)=O)ccn2)ncn1 (single isomer, unassigned) [Example 2, 6-(4-Fluoro-2-methoxyphenyl)-N-{4-[(S-methylsulfonimidoyl)methyl]pyridin-2-yl}pyrimidin-4-amine]
MOLM-13 cells
  IC50: 189 nM
CDK2/CycE
  IC50: 1540 nM
HeLa cells; Homo sapiens, HeLa, 96 h
  IC50: 456 nM
A2780 cells; Homo sapiens, A2780, 96 h
  IC50: 193 nM

## COc1cc(F)ccc1-c1cc(Nc2cc(CS(C)(=N)=O)ccn2)ncn1 (single isomer, unassigned) [Example 3, 6-(4-Fluoro-2-methoxyphenyl)-N-{4-[(S-methylsulfonimidoyl)methyl]pyridin-2-yl}pyrimidin-4-amine]
MOLM-13 cells
  IC50: 80 nM
CDK2/CycE
  IC50: 1040 nM
HeLa cells
  IC50: 850 nM
A2780 cells
  IC50: 126 nM

## COc1cc(F)ccc1-c1cc(Nc2cc(CS(C)(=N)=O)cc(Cl)n2)ncn1 (single isomer, unassigned) [Example 5, N-{6-Chloro-4-[(S-methylsulfonimidoyl)methyl]pyridin-2-yl}-6-(4-fluoro-2-methoxyphenyl)pyrimidin-4-amine]
MOLM-13 cells; Homo sapiens, MOLM-13, 72 h
  IC50: 33 nM
CDK2/CycE
  IC50: 1420 nM
HeLa cells; Homo sapiens, HeLa, 96 h
  IC50: 104 nM
A2780 cells; Homo sapiens, A2780, 96 h
  IC50: 34 nM

## COc1cc(F)ccc1-c1cc(Nc2cc(CS(C)(=N)=O)cc(Cl)n2)ncn1 (single isomer, unassigned) [Example 6, N-{6-Chloro-4-[(S-methylsulfonimidoyl)methyl]pyridin-2-yl}-6-(4-fluoro-2-methoxyphenyl)pyrimidin-4-amine]
MOLM-13 cells
  IC50: 44 nM
CDK2/CycE
  IC50: 1820 nM
HeLa cells
  IC50: 104 nM
A2780 cells
  IC50: 39 nM

## COc1cc(F)ccc1-c1cc(Nc2cc(CS(C)(=N)=O)cc(C)n2)ncn1 (single isomer, unassigned) [Example 8, 6-(4-Fluoro-2-methoxyphenyl)-N-{6-methyl-4-[(S-methylsulfonimidoyl)methyl]pyridin-2-yl}pyrimidin-4-amine]
MOLM-13 cells; Homo sapiens, MOLM-13, 72 h
  IC50: 64 nM
CDK2/CycE
  IC50: 6330 nM
HeLa cells
  IC50: 118 nM
A2780 cells; Homo sapiens, A2780, 96 h
  IC50: 36 nM

## COc1cc(F)ccc1-c1cc(Nc2cc(CS(C)(=N)=O)cc(C)n2)ncn1 (single isomer, unassigned) [Example 9, 6-(4-Fluoro-2-methoxyphenyl)-N-{6-methyl-4-[(S-methylsulfonimidoyl)methyl]pyridin-2-yl}pyrimidin-4-amine]
MOLM-13 cells
  IC50: 43 nM
CDK2/CycE
  IC50: 4400 nM
HeLa cells
  IC50: 52 nM
A2780 cells
  IC50: 39 nM
